Source: patent US20240057592A1, “PESTICIDE COMPOSITIONS OF PHENOL AND RESORCINOL DIENES AND TRIENES” (METABOLIC INSIGHTS LTD., priority 2020, published 2024)

Key:
Rhizoctonia solani [1] = assay: In-vivo validation under greenhouse conditions in cucumber seedlings infected with Rhizoctonia solani; conditions: preventative treatment 24 h before inoculation, 7 d after inoculation, best of 9 experiments
Description: (§1) Formulation 3—Three types of stock solutions were used for final CART formulation preparation at 400 ppm: • (A) 0.1% CART solution in water+base (CART dissolved in water to 0.1% and sonicated for 10 mins at room temperature, then Na2CO3 25% stock was added to volume of 4% of the solution. The solution should be clear orange and at pH=8.0. The solution was sonicated for 20 minutes); • (B) 0.4% Xanthan Gum in water (w/w); • (C) 0.6% Silwet in water (w/w). The final formulation which was applied to cucumber seedlings composed of: 40% of stock solution A, 10% of stock solutions B and C, and 40% of water. The final formulation 3 was either applied as 400 ppm of diluted to the required concentrations and applied to cucumber seedlings. Formulation 4—Three types of stock solutions were used for final CART formulation preparation at 400 ppm: • (A) 10% CART in DMSO (CART dissolved in DMSO to 10% (w/w) and sonicated for 5 mins at room temperature); • (B) 0.4% Xanthan Gum in water (w/w); • (C) 0.6% Silwet in water (w/w). The final formulation which was applied to cucumber seedlings composed of: […], 10% of stock solutions B and C, and 76% of water. The final formulation 4 was either applied as 400 ppm of diluted to the required concentrations and applied to cucumber seedlings. […]
(§2) To evaluate the effect of a Cardol triene in infected plants compared to control plants (infected but not treated) the data was analyzed by Student's t-test and the p-value is calculated. […]
• General description: Rhizoctonia disease severity were evaluated following preventative treatment with CART (Cardol triene). […]

Pythium aphanidermatum [2] = assay: Microplate based screening of bioactivity against Pythium aphanidermatum; format: cell-based
Description: The following Materials, methods and equipment were used: • Materials: SCH, PDBC, DMSO • Equipment: Plate reader, Centrifuge, Shaker, Incubator
• Grow Pythium aphanidermatum on SCH in 90 mm petri plates to get sporulating hyphae. […]
• 1) Read out the plate at 3 more dates: 3 d, 7 d, 14 d and 21 d following the assay start • 2) Calculate the difference of absorbance between each readout and the readout at zero time • 3) Calculate the percentage of growth inhibition of each well at each time point. […]

Rhizoctonia solani [3] = assay: Microplate based assay of bioactivity against Rhizoctonia solani; format: cell-based
Description: • 1) Screen plate at 3 more dates: 3 d, 7 d, 14 d and 21 d following the assay start • 2) Calculate the difference of absorbance between each screen and the read at zero time • 3) Calculate the percentage of growth inhibition of each well at each time point. […]

Pseudomonas syringae = assay: Microplate based screening of bioactivity against Pseudomonas syringae; format: cell-based
Description: • 1) Grow Pseudomonas on LBA plates at 28° C. for 2 days to get a single colony • 2) Transfer a single colony using a sterile toothpick into a 50 ml sterile tube containing 5 ml LB and grow for 24 at 28° C. and 150 RPM • 3) Chill the tube in the fridge for 1 h • 4) Add 7.5 ml of fridge cold, sterile, glycerol solution to the tube—to get 60% glycerol solution • 5) Mix well but gently to get perfect mixing—use vortex at 1000 RPM • 6) Aliquot 100 ul of bacteria suspension in 60% glycerol into 1.5 ml tubes—each aliquot should be enough for screening of 10 microplates • 7) Store the bacteria suspension in 60% glycerol at −20° C.
• 1) Take 1.5 ml tube with 100 ul frozen Pseudomonas suspension from the freezer and thaw it on ice • 2) Prepare in the hood 50 ml tubes with 40 ml fridge cold LB • 3) Mix 40 ul of bacteria suspension with 40 ml fridge cold LB in a 50 ml tube. This amount is enough for activity screening of 10 microplates • 4) Use this suspension for bioactivity screening experiments.
The bioactivity values are in % and reflect the potential of eradicating the target pests. Rules for Bioactivity Relative Value Calculation (Expressed in % from Maximal Value) • a. […] Pseudomonas syringae—activity grade (1/2/3)×repeats #X days of activity/168 (maximal value 3×4×14=168)*100

Pythium aphanidermatum [4] = assay: In-vivo validation under greenhouse conditions in cucumber seedlings infected with Pythium aphanidermatum; conditions: preventative treatment 24 h before inoculation, 7 d after inoculation, best of 9 experiments
Description: as §1, §2
• General description: Pythium aphanidermatum disease severity development was evaluated following preventative treatment by Cardol triene (CART) […]

[5] = 10 ul of 250 ppm solution + 40 ul inoculum, activity grade x repeats x days of activity/252*100, read to 21 d

## C=CC/C=C\C/C=C\CCCCCCCc1cc(O)cc(O)c1 [Cardol triene, 5-8Z,11Z,14-pentadecatrien-1-yl-1,3-benzenediol]
Rhizoctonia solani [1]; 100 ppm
  efficacy at preventing the plants death: up to 81.2%
Rhizoctonia solani [1]; 200 ppm
  efficacy at preventing the plants death: up to 100%
Rhizoctonia solani [1]; 400 ppm
  efficacy at preventing the plants death: up to 98.4%
Pythium aphanidermatum [2]; [5]
  Relative Activity value (%): 100%
Pythium aphanidermatum [2]; summary statement
  pesticidal activity in words: effective pesticides
Rhizoctonia solani [3]; [5]
  Relative Activity value (%): 60%
Rhizoctonia solani [3]; summary statement
  pesticidal activity in words: effective pesticides
Pseudomonas syringae; 10 ul of 250 ppm solution + 40 ul inoculum, activity grade x repeats x days of activity/168*100
  Relative Activity value (%): 50%
Pseudomonas syringae; summary statement
  pesticidal activity in words: effective pesticides
Pythium aphanidermatum [4]; 100 ppm
  efficacy at preventing the plants death: up to 97.6%
Pythium aphanidermatum [4]; 200 ppm
  efficacy at preventing the plants death: up to 100%
Pythium aphanidermatum [4]; 400 ppm
  efficacy at preventing the plants death: up to 71.4%
